Data on two compounds can be found in PMC10598797, “Molecular View on the iRGD Peptide Binding Mechanism: Implications for Integrin Activity and Selectivity Profiles” (Journal of Chemical Information and Modeling, 2023).

One data set addresses T1, αvβ6 (Homo sapiens, UniProt P06756+P18564).
T1 construct: purchased Sino Biological Europe GmbH
The data set can be described thus: Solid-phase integrin binding assay, αvβ6. The conditions noted are these: αvβ6 1 μg/mL coated overnight at 4 °C; biotinylated fibronectin 1 μg/mL; 3 h incubation at room temperature; pH 7.4; absorbance 415 nm; mean of three independent experiments ± SEM.

The next data set deals with tumor. The conditions noted are these: cited from earlier work. The source says:
(§1) Nowadays, the clinical efficacy of chemotherapeutic drugs is frequently hampered either by a lack of selectivity over healthy cells or by poor pharmacokinetic properties, including cancer homing and penetration. This is especially true for solid tumors, which are frequently characterized by the upregulation of junction proteins such as desmoglein 2 (DSG2) and E-cadherin, and extracellular matrix (ECM) components (i.e., fibrinogen and collagen), which form a physical barrier against the intracellular transport of exogenous molecules.[1] For these reasons, anticancer compounds often need to be a ...

Data set [1] relates to metastatic pancreatic ductal adenocarcinoma (PDAC). The conditions noted are these: phase I trial, combination with nab-paclitaxel and gemcitabine; cited from earlier work.
Source text: as §1

Another data set addresses T2, αvβ5 (Homo sapiens, UniProt P06756+P18084).
T2 construct: purchased R&D Systems, Inc
The data set can be described thus: Solid-phase integrin binding assay, αvβ5.

The next data set deals with tumor migration. The conditions noted are these: in vitro, CendR- and NRP-1-dependent; cited from earlier work. The source says:
(§2) The striking iRGD’s tumor-homing activity is linked to the marked overexpression of RGD integrins on the cancer cell membrane.[38]−[40] […] This can be correlated to the peculiar multistage internalization process of iRGD, where the binding to integrins represents only the first step.[16]

For data set [2] the following is noted: cited from earlier work.
Source text: as §2

The next data set has as its system neuropilin-1 (NRP-1). The conditions noted are these: cited from earlier work.
Source text: as §2

T2 sequence (P06756 31-992 limits assumed): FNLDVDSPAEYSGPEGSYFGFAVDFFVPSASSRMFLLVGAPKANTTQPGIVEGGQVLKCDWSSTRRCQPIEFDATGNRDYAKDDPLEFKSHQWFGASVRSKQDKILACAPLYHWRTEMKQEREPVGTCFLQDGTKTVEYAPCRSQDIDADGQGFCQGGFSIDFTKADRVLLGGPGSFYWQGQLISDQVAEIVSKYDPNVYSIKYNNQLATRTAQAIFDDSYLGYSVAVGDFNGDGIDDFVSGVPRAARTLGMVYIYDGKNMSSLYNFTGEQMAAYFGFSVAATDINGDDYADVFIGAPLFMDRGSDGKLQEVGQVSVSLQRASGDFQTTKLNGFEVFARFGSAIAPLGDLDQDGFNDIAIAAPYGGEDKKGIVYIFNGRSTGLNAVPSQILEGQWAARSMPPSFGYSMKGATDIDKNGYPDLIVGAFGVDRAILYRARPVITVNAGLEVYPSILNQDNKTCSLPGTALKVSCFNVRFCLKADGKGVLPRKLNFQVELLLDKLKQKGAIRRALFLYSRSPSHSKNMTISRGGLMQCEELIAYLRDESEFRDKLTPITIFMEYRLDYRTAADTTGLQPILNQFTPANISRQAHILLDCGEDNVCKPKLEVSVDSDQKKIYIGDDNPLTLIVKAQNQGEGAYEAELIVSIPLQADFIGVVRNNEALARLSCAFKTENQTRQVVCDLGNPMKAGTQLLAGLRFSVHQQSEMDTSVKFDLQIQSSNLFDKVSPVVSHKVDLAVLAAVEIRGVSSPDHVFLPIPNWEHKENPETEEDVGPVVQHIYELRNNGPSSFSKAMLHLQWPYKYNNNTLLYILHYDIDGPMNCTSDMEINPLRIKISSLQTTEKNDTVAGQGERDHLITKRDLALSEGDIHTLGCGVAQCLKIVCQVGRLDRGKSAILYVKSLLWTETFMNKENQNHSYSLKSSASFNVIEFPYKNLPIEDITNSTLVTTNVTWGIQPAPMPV
T2 sequence (P18084 24-719 limits assumed): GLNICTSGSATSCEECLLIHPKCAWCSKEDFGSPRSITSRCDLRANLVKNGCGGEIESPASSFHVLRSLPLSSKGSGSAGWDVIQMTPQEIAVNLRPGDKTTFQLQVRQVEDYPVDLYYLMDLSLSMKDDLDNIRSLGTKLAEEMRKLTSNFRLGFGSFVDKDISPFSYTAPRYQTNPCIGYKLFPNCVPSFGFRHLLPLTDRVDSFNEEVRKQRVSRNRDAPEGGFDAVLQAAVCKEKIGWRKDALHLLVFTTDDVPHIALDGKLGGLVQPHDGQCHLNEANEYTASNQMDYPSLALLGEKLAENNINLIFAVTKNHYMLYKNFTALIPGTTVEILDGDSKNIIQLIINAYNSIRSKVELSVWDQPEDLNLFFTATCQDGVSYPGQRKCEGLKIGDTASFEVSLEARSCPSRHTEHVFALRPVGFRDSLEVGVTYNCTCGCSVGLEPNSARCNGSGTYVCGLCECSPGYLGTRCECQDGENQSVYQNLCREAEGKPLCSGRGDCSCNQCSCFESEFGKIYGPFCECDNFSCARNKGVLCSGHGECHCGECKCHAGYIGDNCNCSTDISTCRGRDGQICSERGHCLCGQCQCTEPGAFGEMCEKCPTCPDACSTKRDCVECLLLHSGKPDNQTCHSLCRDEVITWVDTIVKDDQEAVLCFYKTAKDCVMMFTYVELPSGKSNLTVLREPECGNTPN
T1 sequence (P06756 31-992 limits assumed): as the sequence (P06756 31-992 limits assumed) above
T1 sequence (P18564 22-707 limits assumed): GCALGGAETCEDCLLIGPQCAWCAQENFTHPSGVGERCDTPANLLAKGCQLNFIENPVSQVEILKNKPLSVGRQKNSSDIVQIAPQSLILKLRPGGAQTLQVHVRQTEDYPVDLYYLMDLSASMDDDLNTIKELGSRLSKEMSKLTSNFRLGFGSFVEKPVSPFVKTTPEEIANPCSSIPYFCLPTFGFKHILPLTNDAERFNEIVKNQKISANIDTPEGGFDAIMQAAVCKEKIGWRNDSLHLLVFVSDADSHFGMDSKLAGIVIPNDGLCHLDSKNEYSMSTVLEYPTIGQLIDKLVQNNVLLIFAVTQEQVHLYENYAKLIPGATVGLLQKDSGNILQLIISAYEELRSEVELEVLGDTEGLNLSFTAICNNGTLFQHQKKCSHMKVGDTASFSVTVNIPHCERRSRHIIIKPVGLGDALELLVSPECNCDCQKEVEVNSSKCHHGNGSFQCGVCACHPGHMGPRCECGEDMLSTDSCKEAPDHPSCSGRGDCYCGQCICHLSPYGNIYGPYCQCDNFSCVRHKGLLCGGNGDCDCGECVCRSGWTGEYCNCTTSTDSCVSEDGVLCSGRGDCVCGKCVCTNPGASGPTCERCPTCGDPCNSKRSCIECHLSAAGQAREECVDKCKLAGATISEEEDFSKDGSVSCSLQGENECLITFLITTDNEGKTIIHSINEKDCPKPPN
Protocol for αvβ5: (§3) Purified αvβ3 (Sino Biological Europe GmbH) and αvβ5 (R&D Systems, Inc.) were diluted to 0.5 μg/mL, while αvβ6 (Sino Biological Europe GmbH) was diluted to 1 μg/mL in coating buffer containing Tris–HCl (20 mmol/L; pH 7.4), NaCl (150 mmol/L), MnCl2 (1 mmol/L), CaCl2 (2 mmol/L), and MgCl2 (1 mmol/L). An aliquot of diluted receptors (100 μL per well) was added to 96-well microtiter plates (Nunc MW96F Maxisorp Straight) and incubated overnight at 4 °C. The plates were then incubated with blocking solution (coating buffer plus 1% bovine serum albumin) for an additional 2 h at room temperature to block nonspecific binding, followed by 3 h incubation at room temperature with various concentrations of test compounds in the presence of, respectively, vitronectin (1 μg/mL, Sigma-Aldrich) for αvβ3 and αvβ5 and fibronectin for αvβ6 (1 μg/mL, Sigma-Aldrich) biotinylated using the EZ-Link Sulfo-NHS-Biotinylation kit (Thermo Fisher). […] Absorbance at 415 nm was read with a BMG Labtech Fluostar Optima microplate reader. All of the experiments were performed in triplicates, and the data collected were analyzed using the GraphPad 5.0 Software Package (GraphPad Prism, San Diego, CA).
Protocol for αvβ6: as §3

In general, IC50 refers to the concentration needed to halve the response being measured. A lower IC50 goes with greater potency in that assay. `N=C(N)NCCC[C@@H]1NC(=O)[C@@H](N)CSSC[C@@H](C(=O)O)NC(=O)[C@H](CC(=O)O)NC(=O)[C@@H]2CCCN2C(=O)CNC(=O)[C@H](CCCCN)NC(=O)[C@H](CC(=O)O)NC(=O)CNC1=O` [1 (iRGD)] came in with a concentration for half-maximal inhibition (IC50) at αvβ6 of 191 ± 44 nM. Further, the “tumor endocytosis of cytotoxic agents” value in the data set on tumor is reported as “enhanced by the simple coadministration”. In addition, in data set [1], the progression-free survival entry is reported as “longer progression-free survival”. Also, the “potency toward αvβ5 (in words)” value on αvβ5 is “mid-low nanomolar potency”. Further, in the data set with tumor migration, the “effect on tumor migration and chemorepulsion” value is “can inhibit tumor migration and induce chemorepulsion”. Besides, the “site of proteolytical cleavage” value in data set [2] is listed as “proteolytical cleavage at the Lys^5–Gly^6 bond”.

As for CRGDK [CendR motif], in the data set with neuropilin-1 (NRP-1), the “internalization upon binding to NRP-1” value is recorded as “triggers the internalization of the peptide–receptor complex”.
